# Test results as given in US20230107642A1 (Erasca, Inc., priority 2020, published 2023).
# Tests used:
# [1] = Determination of total drug concentration in rat brain (BBB penetration); format: in vivo; conditions: male SD rat, 2 mg/kg IV infusion for 4 hours, brain collected at end of 4 hours
# Protocol: BB. Example 9: Determination of Total Drug Concentration in Rat Brain
# In Vivo Experimental Procedures
# Infuse male SD rat at 2 mg/kg dose for 4 hours through IV administration route. Collect brain tissues at the end of 4 hours.
# Sample Preparation Procedures
# Dilute brain tissue by adding homogenization solvent (1:4, w/v). Homogenize diluted brain tissue samples. Extract analyte by adding organic solvent (1:4, v/v) with spiked internal standard. Vortex and centrifuge the samples. Remove supernatant and dilute with HPLC compatible solvent (1:3, v/v).
# Inject diluted extract into LC-MS/MS system using reversed phase high performance liquid chromatography coupled with electrospray ionization and selected reaction monitoring. Determine the total drug concentration in brain samples by quantitating against the standard curve prepared using the same matrix.
# The following data provides blood brain barrier (BBB) penetration activity for a selection of inventive compounds where were directly compared to sotorasib and adagrasib (concentration in brain measured in ng/g).
# Compounds that were measured as having a total concentration in the brain of at least 60 ng/g are indicated as “+”.
# [2] = biological target: T1, Cys12 of the KRAS 4B G12C protein (Homo sapiens, UniProt P01116, G12C); test: In vitro covalent adduct formation (CAF) assay, LC-MS intact mass; format: binding; conditions: 10 uM compound, 60 min
# T1 construct: This protein contained 188 amino acids in total, including an N-terminal 6-Histidine tag; made in house; host or cells: E. coli BL21
# In short: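 GDP-loaded (>95%) His-TEV-tagged KRAS 4B G12C (residues 1–169), 5 μM in TBS pH 7.4, incubated with 10 μM compound (4% DMSO) at 22° C for one hour. Intact-protein LC-MS gave free:adduct ratios, reported as percent protein modified; duplicate runs.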
Compound,BBB activity [1],% CAF 10 uM @ 60 min [2] [%]
"C=CC(=O)N1C[C@H](C)N(c2nc(=O)n3c4c(c(-c5ccc(F)cc5F)c(C(F)(F)F)cc24)SC[C@@H]3COC)C[C@H]1C (atropisomer, axis not shown) [Example 13-1]",+ (Compounds that were measured as having a total concentration in the brain of at least 60 ng/g are indicated as “+”),–
"C=CC(=O)N1[C@H](C)CN(c2nc(=O)n3c4c(c(-c5cc(Cl)c(F)cc5F)c(C(F)(F)F)cc24)SC[C@@H]3COC)C[C@@H]1C (atropisomer, axis not shown) [Example 13-2]",+ (Compounds that were measured as having a total concentration in the brain of at least 60 ng/g are indicated as “+”),–
"C=CC(=O)N1[C@H](C)CN(c2nc(=O)n3c4c(c(-c5ccc(Cl)cc5F)c(C(F)(F)F)cc24)SC[C@@H]3COC)C[C@@H]1C (atropisomer, axis not shown) [Example 13-3]",+ (Compounds that were measured as having a total concentration in the brain of at least 60 ng/g are indicated as “+”),–
"C=CC(=O)N1[C@H](C)CN(c2nc(=O)n3c4c(c(-c5cc(Br)c(F)cc5F)c(C(F)(F)F)cc24)SC[C@@H]3COC)C[C@@H]1C (atropisomer, axis not shown) [Example 13-4]",+ (Compounds that were measured as having a total concentration in the brain of at least 60 ng/g are indicated as “+”),–
"C=CC(=O)N1[C@H](C)CN(c2nc(=O)n3c4c(c(-c5cc(Br)c(F)cc5F)c(C(F)(F)F)cc24)SC[C@@H]3CC)C[C@@H]1C (atropisomer, axis not shown) [Example 13-6]",+ (Compounds that were measured as having a total concentration in the brain of at least 60 ng/g are indicated as “+”),–
"C=CC(=O)N1CCN(c2nc(=O)n3c4c(c(-c5cc(Cl)c(F)cc5F)c(C(F)(F)F)cc24)SC[C@@H]3COC)CC1 (atropisomer, axis not shown) [Example 13-7]",+ (Compounds that were measured as having a total concentration in the brain of at least 60 ng/g are indicated as “+”),–
"C=CC(=O)N1[C@H](C)CN(c2nc(=O)n3c4c(c(-c5cc(Cl)c(F)cc5F)c(C(F)(F)F)cc24)SC[C@@H]3CC)C[C@@H]1C (atropisomer, axis not shown) [Example 13-8]",+ (Compounds that were measured as having a total concentration in the brain of at least 60 ng/g are indicated as “+”),–
"C=CC(=O)N1[C@H](C)CN(c2nc(=O)n3c4c(c(-c5cc(I)c(F)cc5F)c(C(F)(F)F)cc24)SC[C@@H]3COC)C[C@@H]1C (atropisomer, axis not shown) [Example 13-12]",+ (Compounds that were measured as having a total concentration in the brain of at least 60 ng/g are indicated as “+”),–
"C=CC(=O)N1[C@H](C)CN(c2nc(=O)n3c4c(c(-c5ccc(F)cc5F)c(C(F)(F)F)cc24)SC[C@@H]3COC)C[C@@H]1C (atropisomer, axis not shown) [Example 13-15]",+ (Compounds that were measured as having a total concentration in the brain of at least 60 ng/g are indicated as “+”),–
"C=CC(=O)N1CCN(c2nc(=O)n3c4c(c(-c5ccc(F)cc5F)c(C(F)(F)F)cc24)SC[C@@H]3COC)CC1 (atropisomer, axis not shown) [Example 13-17]",+ (Compounds that were measured as having a total concentration in the brain of at least 60 ng/g are indicated as “+”),–
"C=CC(=O)N1[C@H](C)CN(c2nc(=O)n3c4c(c(-c5cc(Cl)c(F)cc5F)c(C(F)(F)F)cc24)SC[C@@H](OC)C3)C[C@@H]1C (atropisomer, axis not shown) [Example 13-39]",+ (Compounds that were measured as having a total concentration in the brain of at least 60 ng/g are indicated as “+”),–
"C=CC(=O)N1[C@H](C)CN(c2nc(=O)n3c4c(c(-c5cc(Cl)c(F)cc5F)c(C(F)(F)F)cc24)SCC2(COC2)C3)C[C@@H]1C (atropisomer, axis not shown) [Example 13-44]",+ (Compounds that were measured as having a total concentration in the brain of at least 60 ng/g are indicated as “+”),–
"C=CC(=O)N1[C@H](C)CN(c2nc(=O)n3c4c(c(-c5ccc(F)cc5F)c(C(F)(F)F)cc24)SC[C@@H](OCC)C3)C[C@@H]1C (atropisomer, axis not shown) [Example 13-52]",− (Compounds that did not meet this threshold are indicated as “−”),–
"C=CC(=O)N1[C@H](C)CN(c2nc(=O)n3c4c(c(-c5ccc(F)cc5F)c(C(F)(F)F)cc24)SC[C@@H](OCC)C3)C[C@@H]1C (atropisomer, axis not shown) [Example 13-58]",− (Compounds that did not meet this threshold are indicated as “−”),–
"C=CC(=O)N1[C@H](C)CN(c2nc(=O)n3c4c(c(-c5ccc(F)cc5F)c(C(F)(F)F)cc24)SC[C@@H]3COCOC)C[C@@H]1C (atropisomer, axis not shown) [Example 13-60]",− (Compounds that did not meet this threshold are indicated as “−”),–
"C=CC(=O)N1[C@H](C)CN(c2nc(=O)n3c4c(c(-c5cc(Cl)c(F)cc5F)c(C(F)(F)F)cc24)SC[C@@H]3COCOC)C[C@@H]1C (atropisomer, axis not shown) [Example 13-62]",− (Compounds that did not meet this threshold are indicated as “−”),–
"C=CC(=O)N1[C@H](C)CN(c2nc(=O)n3c4c(c(-c5cc(Br)c(F)cc5F)c(C(F)(F)F)cc24)SC[C@@H](OC)C3)C[C@@H]1C (atropisomer, axis not shown) [Example 13-70]",− (Compounds that did not meet this threshold are indicated as “−”),–
"C=CC(=O)N1C[C@H](C)N(c2nc(=O)n3c4c(c(-c5cc(Cl)c(F)cc5F)c(C(F)(F)F)cc24)SC[C@@H]3CN2C[C@@H]3C[C@H]2CO3)C[C@H]1C (atropisomer, axis not shown) [Example 13-71]",− (Compounds that did not meet this threshold are indicated as “−”),–
"C=CC(=O)N1[C@H](C)CN(c2nc(=O)n3c4c(c(-c5cc(Cl)c(F)cc5F)c(C(F)(F)F)cc24)SC[C@@H](Nc2ncccn2)C3)C[C@@H]1C (atropisomer, axis not shown) [Example 13-73]",− (Compounds that did not meet this threshold are indicated as “−”),–
"C=CC(=O)N1[C@H](C)CN(c2nc(=O)n3c4c(c(-c5cc(Cl)c(F)cc5F)c(C(F)(F)F)cc24)SC[C@@H](OCC)C3)C[C@@H]1C (atropisomer, axis not shown) [Example 13-77]",− (Compounds that did not meet this threshold are indicated as “−”),–
"C=CC(=O)N1[C@H](C)CN(c2nc(=O)n3c4c(c(-c5ccc(F)cc5F)c(C(F)(F)F)cc24)SC[C@@H]3CC)C[C@@H]1C [Example 1451, (3S)-7-((3S,5R)-4-acryloyl-3,5-dimethylpiperazin-1-yl)-10-(2,4-difluorophenyl)-3-ethyl-9-(trifluoromethyl)-2,3-dihydro-5H-[1,4]thiazino[2,3,4-ij]quinazolin-5-one]",–,95
"C=CC(=O)N1[C@H](C)CN(c2nc(=O)n3c4c(c(-c5cc(Br)c(F)cc5F)c(C(F)(F)F)cc24)SCC2(COC2)C3)C[C@@H]1C [Example 1452, 8′-((3S,5R)-4-acryloyl-3,5-dimethylpiperazin-1-yl)-11′-(5-bromo-2,4-difluorophenyl)-10′-(trifluoromethyl)-2′H,4′H,6′H-spiro[oxetane-3,3′-[1,4]thiazepino[2,3,4-ij]quinazolin]-6′-one]",–,97
"C=CC(=O)N1C[C@H](C)N(c2nc(=O)n3c4c(c(-c5cc(O)c(F)cc5F)c(C(F)(F)F)cc24)SCC2(COC2)C3)C[C@H]1C [Example 1454, 8′-((2S,5R)-4-acryloyl-2,5-dimethylpiperazin-1-yl)-11′-(2,4-difluoro-5-hydroxyphenyl)-10′-(trifluoromethyl)-2′H,4′H,6′H-spiro[oxetane-3,3′-[1,4]thiazepino[2,3,4-ij]quinazolin]-6′-one]",–,92
"C=CC(=O)N1C[C@H](C)N(c2nc(=O)n3c4c(c(-c5cc(Br)c(F)cc5F)c(C(F)(F)F)cc24)SCC2(CCOCC2)C3)C[C@H]1C [Example 1455, 8′-((2S,5R)-4-Acryloyl-2,5-dimethylpiperazin-1-yl)-11′-(5-bromo-2,4-difluorophenyl)-10′-(trifluoromethyl)-2,3,5,6-tetrahydro-2′H,4′H,6′H-spiro[pyran-4,3′-[1,4]thiazepino[2,3-4-ij]quinazolin]-6′-one]",–,66
"(3S,10R)-7-((2S,5R)-4-acryloyl-2,5-dimethylpiperazin-1-yl)-10-(5-chloro-2,4-difluorophenyl)-3-((4-cyclopropylpiperazin-1-yl)methyl)-9-(trifluoromethyl)-2,3-dihydro-5H-[1,4]thiazino[2,3,4-ij]quinazolin-5-one [Example 1360]",–,92.8
"(3S,10S)-7-((2S,5R)-4-acryloyl-2,5-dimethylpiperazin-1-yl)-10-(5-chloro-2,4-difluorophenyl)-3-((4-cyclopropylpiperazin-1-yl)methyl)-9-(trifluoromethyl)-2,3-dihydro-5H-[1,4]thiazino[2,3,4-ij]quinazolin-5-one [Example 1361]",–,29.8
